The source of these data is US9969710B2, “Heteroaryl compounds as IRAK inhibitors and uses thereof” (Merck Patent GmbH, priority 2015, dated 2018).

Broadly, the IC50 is the concentration needed to halve the response being measured.

Assay [1] concerns the target T1, IRAK1 (Homo sapiens, UniProt P51617).
T1 construct: His-TEV-IRAK1 (194-712); His (N); TEV cleavage site (N)
In words: IRAK1 enzymatic assay (ADP-Glo luminescence). In kind it is biochemical. Conditions: human recombinant His-TEV-IRAK1 (194-712), ATP 1 μM; read-out: IRAK 1 IC50. The protocol:
IRAK1 is a human purified recombinant enzyme (His-TEV-IRAK1 (194-712))
In this assay, IRAK1 hydrolyses ATP and autophosphorylates. Measurement of IRAK-1 inhibition is performed in 384-well format based on luminescence assay (ADP-Glo™ Kinase Assay from Promega). Purified human recombinant IRAK1 ([…]) and serial diluted compounds in DMSO (range of concentration from 10 μM to 0.5 nM) or controls (1% DMSO) are incubated for 15 minutes at RT in assay buffer containing 50 mM Hepes pH 7.0, Fatty acid-free BSA 0.1%, Dithiothreitol (DTT) 2 mM, MgCl2 10 mM, EGTA 0.5 mM, Triton X-100 0.01%. The kinase reaction is then initiated by the addition of ATP at a concentration of 1 μM. After 2 hours of incubation at RT, the reaction is stopped and the unconsumed ATP depleted by the addition of ADP-Glo™ Reagent according to supplier instructions. After 40 minutes of incubation at RT, the Kinase Detection Reagent is then added to the assay plate according to supplier instructions. After 20 minutes of incubation at RT, the luminescence signal is measured with a luminometer (PerkinElmer Envision or equivalent reader).
(In general: ADP-Glo first removes unused ATP, then detects ADP through luciferase.)

Assay [2] deals with T2, IRAK4 (Homo sapiens, UniProt Q9NWZ3).
T2 construct: His-TEV-IRAK4 (1-460); His (N); TEV cleavage site (N)
T2 sequence (Q9NWZ3 1-460): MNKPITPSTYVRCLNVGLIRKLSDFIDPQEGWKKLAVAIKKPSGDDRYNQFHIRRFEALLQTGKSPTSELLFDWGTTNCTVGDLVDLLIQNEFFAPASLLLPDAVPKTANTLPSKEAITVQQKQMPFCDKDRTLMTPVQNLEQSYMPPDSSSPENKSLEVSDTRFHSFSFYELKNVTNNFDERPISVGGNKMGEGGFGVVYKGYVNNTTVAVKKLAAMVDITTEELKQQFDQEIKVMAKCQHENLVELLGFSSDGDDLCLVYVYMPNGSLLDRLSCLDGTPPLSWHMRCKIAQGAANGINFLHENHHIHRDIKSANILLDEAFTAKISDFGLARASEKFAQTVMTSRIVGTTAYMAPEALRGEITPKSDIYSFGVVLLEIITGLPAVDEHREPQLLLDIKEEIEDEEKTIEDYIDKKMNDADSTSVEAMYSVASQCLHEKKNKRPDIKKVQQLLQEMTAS
In words: IRAK4 enzymatic assay (ADP-Glo luminescence). Type of assay: biochemical. The following applies: human recombinant His-TEV-IRAK4 (1-460), STK1-biotin peptide substrate. As for the experimental part:
IRAK4 is a human purified recombinant enzyme (His-TEV-IRAK4 (1-460)).
In this assay, IRAK4 hydrolyses ATP, autophosphorylates and phosphorylates a Serine/Threonine generic peptidic substrate (STK: 61ST1BLC from CisBio International). Measurement of IRAK-4 inhibition is performed in 384-well format based on a luminescence assay (ADP-Glo™ Kinase Assay from Promega). Purified human recombinant IRAK4 ([…]) and serial diluted compounds in DMSO (range of concentration from 10 μM to 0.5 nM) or controls (1% DMSO) are incubated for 15 minutes at RT in assay buffer containing 50 mM Hepes pH 7.0, Fatty acid-free BSA 0.1%, Dithiothreitol (DTT) 2 mM, MgCl2 10 mM, EGTA 0.5 mM, Triton X-100 0.01%, MnCl2 5 mM. The kinase reaction is then initiated by the addition of ATP ([…]) and the peptidic substrate STK1-biotin peptide (300 nM). After 2 hours of incubation at RT, the reaction is stopped and the unconsumed ATP depleted by the addition of ADP-Glo™ Reagent according to supplier instructions. After 40 minutes of incubation at RT, the Kinase Detection Reagent is then added to the assay plate according to supplier instructions. After 20 minutes of incubation at RT, the luminescence signal is measured with a plate-reading luminometer (PerkinElmer Envision or equivalent reader).

Assay [3] concerns TLR7 induced IL-6 secretion in human mononuclear cells (PBMC's). In words: TLR7 induced IL-6 in human PBMC's. Conditions: TLR7 specific ligand 2 uM overnight, IL-6 AlphaLISA. Type of assay: cell-based. As for the experimental part: TLR7 Induced IL-6 in Human PBMC's
Human PBMC assay was used as one of the functional assaya to monitor the activity of IRAK1 and IRAK4 small molecule inhibitors on TLR7 induced IL-6 secretion in human mononuclear cells (PBMC's). Human PBMCs were prepared from buffy coats (whole blood enriched with leukocytes and platelets) obtained from healthy volunteers used either fresh or frozen are plated in assay media (RPMI+2% P/S/L-glu+10% HI-FBS) and pre-treated with compounds in DMSO/media (range of concentrations from 25 uM to 0.4 nM) or controls (0.25% DMSO) for 30 minutes at 37° C. in assay media. Following pre-treatment with IRAK1 and IRAK4 inhibitors, PBMC's were stimulated with TLR7 specific ligand (2 uM) overnight (16-18 hrs) at 37° C. After incubation supernatant was transferred to 384 well PE AlphaPlate-384 (6005350) and IL-6 is quantified using Perkin Elmer IL-6 Alpha LISA kit (AL223C). Plates were read on an Envision® plate reader with Alpha Technology®.
On the technique in general: In Alpha technology, singlet oxygen from a donor bead excites a nearby acceptor bead.

T1 sequence (P51617 194-712): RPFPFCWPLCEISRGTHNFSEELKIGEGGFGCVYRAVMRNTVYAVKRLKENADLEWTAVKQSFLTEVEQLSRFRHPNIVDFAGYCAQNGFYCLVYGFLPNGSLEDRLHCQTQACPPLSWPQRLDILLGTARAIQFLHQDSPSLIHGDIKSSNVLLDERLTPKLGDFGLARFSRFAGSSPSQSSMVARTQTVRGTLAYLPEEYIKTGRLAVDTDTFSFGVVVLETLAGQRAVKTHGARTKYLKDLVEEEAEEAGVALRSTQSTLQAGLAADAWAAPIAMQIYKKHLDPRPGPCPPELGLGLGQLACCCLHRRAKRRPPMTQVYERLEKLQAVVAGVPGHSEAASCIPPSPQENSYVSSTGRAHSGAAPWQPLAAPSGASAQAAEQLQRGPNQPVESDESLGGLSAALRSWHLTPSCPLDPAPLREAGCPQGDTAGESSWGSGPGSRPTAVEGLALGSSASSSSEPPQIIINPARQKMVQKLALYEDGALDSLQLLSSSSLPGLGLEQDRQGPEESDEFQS

For `CN1C(=O)CCC1(C)c1ccc2c(c1)nc(NC(=O)c1cccc(C(F)F)c1)n2CCCO` (stereo not drawn) [Compound 31, 3-Difluoromethyl-N-[5-(1,2-dimethyl-5-oxo-pyrrolidin-2-yl)-1-(3-hydroxy-propyl)-1H-benzoimidazol-2-yl]-benzamide], the IC50 is 100 to 1000 nM in assay [1]; not above 100 nM in assay [2]; 1000 to 10000 nM in assay [3] (Homo sapiens, PBMC).
As for `CN1CC(c2ccc3c(c2)nc(NC(=O)c2cccc(C(F)F)c2)n3CCCO)C(C)(C)C1=O` (single isomer, unassigned) [Compound 27a], the IC50 was not above 100 nM in assay [1]; not above 100 nM in assay [2]; 100 to 1000 nM in assay [3] (Homo sapiens, PBMC).
Take `CN1CCC[C@@H](c2ccc3c(c2)[nH]/c(=N\C(=O)c2cccc(C(F)F)c2)n3C[C@@](C)(F)CO)C1=O` [Compound 3d, 3-(difluoromethyl)-N-[(2E)-1-[(2R)-2-fluoro-3-hydroxy-2-methylpropyl]-5-[(3S)-1-methyl-2-oxopiperidin-3-yl]-2,3-dihydro-1H-1,3-benzodiazol-2-ylidene]benzamide]: the IC50 in assay [1] is not above 100 nM; in assay [2] it was not above 100 nM; in assay [3] (Homo sapiens, PBMC), not above 100 nM.
As to `CN1CCC[C@H](c2ccc3c(c2)[nH]/c(=N\C(=O)c2cccc(C(F)(F)F)c2)n3CCCO)C1=O` [Compound 1b, (R,E)-N-(1-(3-hydroxypropyl)-5-(1-methyl-2-oxopiperidin-3-yl)-1H-benzo[d]imidazol-2(3H)-ylidene)-3-(trifluoromethyl)benzamide], the IC50 in assay [1] is 100 to 1000 nM; in assay [2], not above 100 nM; in assay [3] (Homo sapiens, PBMC) it was 1000 to 10000 nM.
The corresponding values for `CN1CCCC(c2ccc3c(c2)[nH]/c(=N\C(=O)c2cccc(C(F)F)c2)n3C[C@@](C)(F)CO)C1=O` (stereo partly drawn) [Compound 2b, (E)-3-(difluoromethyl)-N-(1-((R)-2-fluoro-3-hydroxy-2-methylpropyl)-5-(1-methyl-2-oxopiperidin-3-yl)-1H-benzo[d]imidazol-2(3H)-ylidene)benzamide] are 100 to 1000 nM, not above 100 nM and not above 100 nM.
The matching figures for `CN1CCC[C@H](c2ccc3c(c2)[nH]/c(=N\C(=O)c2cccc(C(F)F)c2)n3C[C@](C)(F)CO)C1=O` (single isomer, unassigned) [Compound 3c]: 100 to 1000 nM, not above 100 nM and not above 100 nM.
The matching figures for `CN1CCC(c2ccc3c(c2)[nH]/c(=N\C(=O)c2cccc(C(F)(F)F)c2)n3CC(O)CO)C1=O` (stereo not drawn) [Compound 20, N-[1-(2,3-Dihydroxy-propyl)-5-(1-methyl-2-oxo-pyrrolidin-3-yl)-1,3-dihydro-benzoimidazol-(2E)-ylidene]-3-trifluoromethyl-benzamide]: 100 to 1000 nM, not above 100 nM and 100 to 1000 nM.
With `CN1CCC[C@H](c2ccc3c(c2)[nH]/c(=N\C(=O)c2cccc(C(F)F)c2)n3C[C@@](C)(F)CO)C1=O` [Compound 3a, 3-(difluoromethyl)-N-[(2E)-1-[(2R)-2-fluoro-3-hydroxy-2-methylpropyl]-5-[(3R)-1-methyl-2-oxopiperidin-3-yl]-2,3-dihydro-1H-1,3-benzodiazol-2-ylidene]benzamide], the IC50 in assay [1] is 1000 to 10000 nM; in assay [2], not above 100 nM; in assay [3] (Homo sapiens, PBMC), 100 to 1000 nM.
The corresponding values for `CN1CC[C@H](c2ccc3c(c2)nc(NC(=O)c2cccc(C(F)(F)F)c2)n3CCCO)C1=O` [Compound 23b, N-[1-(3-hydroxypropyl)-5-[(3R)-1-methyl-2-oxopyrrolidin-3-yl]-1H-1,3-benzodiazol-2-yl]-3-(trifluoromethyl) benzamide] are 100 to 1000 nM, not above 100 nM and 100 to 1000 nM.
The corresponding values for `C=CCn1/c(=N/C(=O)c2cccc(C(F)(F)F)c2)[nH]c2cc(C3CCN(C)C3=O)ccc21` (stereo not drawn) [Compound 19, N-[1-Allyl-5-(1-methyl-2-oxo-pyrrolidin-3-yl)-1,3-dihydro-benzoimidazol-(2E)-ylidene]-3-trifluoromethyl-benzamide] are 100 to 1000 nM, not above 100 nM and 100 to 1000 nM.
The matching figures for `CN1CCCC(c2ccc3c(c2)[nH]/c(=N\C(=O)c2cccc(C(F)(F)F)c2)n3CCC(O)CO)C1=O` (stereo not drawn) [Compound 22, N-[1-(3,4-Dihydroxy-butyl)-5-(1-methyl-2-oxo-piperidin-3-yl)-1,3-dihydro-benzoimidazol-(2E)-ylidene]-3-trifluoromethyl-benzamide]: 100 to 1000 nM, not above 100 nM and not above 100 nM.
As to `CN1C(=O)CCC1(C)c1ccc2c(c1)nc(NC(=O)c1cccc(C(F)F)c1)n2CCCO` (single isomer, unassigned) [Compound 31a], the IC50 is 100 to 1000 nM in assay [1]; not above 100 nM in assay [2]; 1000 to 10000 nM in assay [3] (Homo sapiens, PBMC).
The matching figures for `CC(=O)N1CCC(c2ccc3c(c2)[nH]/c(=N\C(=O)c2cccc(C(F)(F)F)c2)n3CCCO)C1` (stereo not drawn) [Compound 12, (E)-N-(5-(1-acetylpyrrolidin-3-yl)-1-(3-hydroxypropyl)-1H-benzo[d]imidazol-2(3H)-ylidene)-3-(trifluoromethyl)benzamide]: 100 to 1000 nM, not above 100 nM and 100 to 1000 nM.
The matching figures for `CN1CCCC(c2ccc3c(c2)[nH]/c(=N\C(=O)c2cccc(C(F)(F)F)c2)n3C[C@](C)(F)CO)C1=O` (stereo partly drawn) [Compound 16, (E)-N-(1-((S)-2-fluoro-3-hydroxy-2-methylpropyl)-5-(1-methyl-2-oxopiperidin-3-yl)-1H-benzo[d]imidazol-2(3H)-ylidene)-3-(trifluoromethyl)benzamide]: 100 to 1000 nM, not above 100 nM and 100 to 1000 nM.
On to `CN1CCC(c2ccc3c(c2)[nH]/c(=N\C(=O)c2cccc(C(F)(F)F)c2)n3CCC(O)CO)C1=O` (single isomer, unassigned) [Compound 21d], for which the IC50 in assay [1] was not above 100 nM; in assay [2] it was not above 100 nM; in assay [3], 100 to 1000 nM.
For `CN1CCCC(c2ccc3c(c2)[nH]/c(=N\C(=O)c2cccc(C(F)(F)F)c2)n3CCC(O)CO)C1=O` (single isomer, unassigned) [Compound 22b], the IC50 in assay [1], in assay [2] and in assay [3] was not above 100 nM in each case.
With `CN1CC(c2ccc3c(c2)nc(NC(=O)c2cccc(C(F)(F)F)c2)n3CCCO)C(C)(C)C1=O` (single isomer, unassigned) [Compound 25a], the IC50 in assay [1] is not above 100 nM; in assay [2], not above 100 nM; in assay [3] (Homo sapiens, PBMC) it was 100 to 1000 nM.
